The results in this text go back to ChEMBL document CHEMBL3997763 (Medchemcomm, 2016).

For data set [1], the system named is Rattus norvegicus. Briefly: Hypolipidemic activity in HFD-induced Charles Foster rat assessed as inhibition of hepatic HMG-CoA reductase activity by measuring […] at 100 mg/kg administered as single dose via oral gavage for 30 days simultaneously with high fat diet by colorimetric method. Type of data set: functional, organism-based.

Data set [2] deals with Rattus norvegicus. Briefly: Hypolipidemic activity in HFD-induced Charles Foster rat assessed as increase in serum HDL-TC at 100 mg/kg administered as single dose via oral gavage for 30 days simultaneously with high fat diet. Type of data set: functional, organism-based.
Data set [3] can be described thus: AUC (0 to infinity) in Sprague-Dawley rat at 100 mg/kg, po administered as single dose by LC-MS/MS analysis. The note with it: in vivo. Also on record: dose 100 mg/kg, time infinity, route oral. Type of data set: ADME, organism-based.
Data set [4] is filed under the species Rattus norvegicus. The data set is described as follows: animal or person. Type of data set: functional. The note with it: Charles Foster, po, 18 h.
Description: Antihyperlipidemic activity in triton WR-1339 induced Charles Foster rat hyperlipidemia model assessed as inhibition of phospholipid level in serum at 100 mg/kg, po administered simultaneously with triton WR-1339 after 18 hrs by enzymatic method relative to control
Data set [5] concerns Rattus norvegicus. The data set is described as follows: Hypolipidemic activity in HFD-induced Charles Foster rat chronic hyperlipidemia model assessed as increase in fecal excretion of cholic acid at 100 mg/kg administered via oral gavage for 30 days simultaneously with high fat diet by enzymatic method relative to HFD treated vehicle. In kind it is functional.
Data set [6] relates to Rattus norvegicus. Briefly: Hypolipidemic activity in HFD-induced Charles Foster rat assessed as increase in human I125-LDL binding to rat liver plasma membrane at 100 mg/kg administered as single dose via oral gavage for 30 days simultaneously with high fat diet by minigamma counting. Type of data set: functional, organism-based.

Active and inactive are the calls of the source. The calls are words filed in the database; no cut-off is given here.

A word on the AUC(0-inf): it is total exposure, with the tail of the curve extrapolated. Broadly, the inhibition in vivo is the drop in the measured response relative to a control, in per cent. Lower therefore signals little suppression. As for `COc1ccc(-c2cc3cc(C(c4c[nH]c5ccccc45)c4c[nH]c5ccccc45)cc(C(C)(C)C)c3oc2=O)cc1OC`, in the data set with Rattus norvegicus [1], the inhibition entry is “Active”. The outcome with Rattus norvegicus [2] and with Rattus norvegicus [6] was Active. This compound also came in with an AUC(0-inf) in data set [3] of 417 ng·h/mL. In the data set listed under Rattus norvegicus [4], this compound came in with an inhibition in vivo at 100 mg/kg of 33%. For the same compound, in the data set on Rattus norvegicus [5], the Activity is 31%.
